Test results taken from patent publication US8399419B2, “Antibacterial aminoglycoside analogs” (Achaogen, Inc., priority 2008, dated 2013).
Values after ≈ are worked out from the molar mass of the structure shown.

What was measured:
P. aeruginosa ATCC 27853 = test: MIC assay (CLSI broth microdilution), APAE001; type: cell-based; conditions: Pseudomonas aeruginosa; APAE001 is ATCC27853 (P. aeruginosa); Mueller Hinton Broth, 35 C, 20 hours
Description: (§1) Minimum inhibitory concentrations (MIC) were determined by reference Clinical and Laboratory Standards Institute (CLSI) broth microdilution methods per M7-A7 [2006]. Quality control ranges utilizing E. coli ATCC 25922, P. aeruginosa ATCC 27853 and S. aureus ATCC 29213, and interpretive criteria for comparator agents were as published in CLSI M100-S17 [2007]. Briefly, serial two-fold dilutions of the test compounds were prepared at 2× concentration in Mueller Hinton Broth. The compound dilutions were mixed in 96-well assay plates in a 1:1 ratio with bacterial inoculum. The inoculum was prepared by suspension of a colony from an agar plate that was prepared the previous day. Bacteria were suspended in sterile saline and added to each assay plate to obtain a final concentration of 5×10^5 CFU/mL. The plates were incubated at 35 C for 20 hours in ambient air.

E. coli ATCC 25922 = test: MIC assay (CLSI broth microdilution), AECO001; type: cell-based; conditions: Escherichia coli; AECO001 is ATCC25922 (E. coli); Mueller Hinton Broth, 35 C, 20 hours
Description: as §1

Compound: N#CCCC(=O)N[C@@H]1C[C@H](N)[C@@H](O[C@H]2O[C@H](CN)CC[C@H]2N)[C@H](O[C@@H]2O[C@H](CO)[C@@H](O[C@H]3O[C@@H](CN)CC[C@H]3N)[C@H]2O)[C@H]1O [Example 14/Compound 3, 3′,4′,3′″,4′″-tetra-deoxy-1-(3-cyano-propionyl)-neomycin]
- MIC (P. aeruginosa ATCC 27853): > 16 µg/mL
- MIC (E. coli ATCC 25922): 1 to 16 µg/mL (≈ 1.58 to 25.3 µM)

Compound: NCC[C@H](O)C(=O)N[C@@H]1C[C@H](N)[C@@H](O[C@H]2O[C@H](CN)CC[C@H]2N)[C@H](O[C@@H]2O[C@H](CO)[C@@H](O[C@H]3O[C@H](CN)CC[C@H]3N)[C@H]2O)[C@H]1O [Example 6/Compound 9]
- MIC (P. aeruginosa ATCC 27853): 1 to 16 µg/mL (≈ 1.53 to 24.5 µM)
- MIC (E. coli ATCC 25922): 1 to 16 µg/mL (≈ 1.53 to 24.5 µM)

Compound: NC[C@@H]1CC[C@@H](N)[C@@H](O[C@H]2[C@H](O[C@@H]3O[C@H](CO)[C@@H](O[C@H]4O[C@@H](CN)CC[C@H]4N)[C@H]3O)[C@@H](O)[C@H](NC(=O)[C@H](O)[C@@H](F)CN)C[C@@H]2N)O1 [Example 25/Compound 8, 3′,4′,3′″,4′″-tetra-deoxy-1-(4-amino-3(S)-fluoro-2(S)-hydroxy-butyryl)-neomycin]
- MIC (P. aeruginosa ATCC 27853): ≤ 1 µg/mL
- MIC (E. coli ATCC 25922): ≤ 1 µg/mL

Compound: NC[C@H]1CC[C@@H](N)[C@@H](O[C@H]2[C@@H](O)[C@H](O[C@@H]3[C@@H](O)[C@H](N)C[C@H](N)[C@H]3O[C@H]3O[C@H](CO)CC[C@H]3N)O[C@@H]2CO)O1 [Example 2/Compound 8]
- MIC (P. aeruginosa ATCC 27853): > 16 µg/mL
- MIC (E. coli ATCC 25922): 1 to 16 µg/mL (≈ 1.81 to 29 µM)

Compound: NCC[C@H](O)C(=O)N[C@@H]1C[C@H](N)[C@@H](O[C@H]2O[C@H](CN)C=C[C@H]2N)[C@H](O[C@@H]2O[C@H](CO)[C@@H](O[C@H]3O[C@@H](CN)C=C[C@H]3N)[C@H]2O)[C@H]1O [Example 5/Compound 7]
- MIC (P. aeruginosa ATCC 27853): ≤ 1 µg/mL
- MIC (E. coli ATCC 25922): 1 to 16 µg/mL (≈ 1.54 to 24.7 µM)
